Drawing on PubChem BioAssay (NCI), this text covers TGI for 12 compounds.

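Protocol summary: plate cells (96-well), add compound at 5 concentrations, incubate 48 h, interpolate endpoints linearly. TGI is the concentration that stops growth completely.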

Some test systems named below: UACC-62 melanoma; OVCAR-8 ovarian; SK-MEL-5 melanoma; HOP-62 NSCLC; BT-549 breast; MOLT-4 leukemia; CCRF-CEM leukemia; HCT-15 colon; LOX IMVI melanoma; MCF7 breast; A498 renal.
Common to all, as to assay: NCI-60 cell line screen, 48 h

In the case of `N#Cc1c(NC(=S)NCc2ccccc2)sc2c1CCN(N1CCc3c(sc(NC(=S)NCc4ccccc4)c3C#N)C1)C2`, the TGI with UACC-62 melanoma, in the test on OVCAR-8 ovarian, in the test with SK-MEL-5 melanoma, in the test on HOP-62 NSCLC, in the test on BT-549 breast and in the test with MOLT-4 leukemia was above 100 µM in each case. Besides, the TGI in the test on CCRF-CEM leukemia, in the test with HCT-15 colon, in the test on LOX IMVI melanoma, with MCF7 breast and with A498 renal was above 100 µM each time.
With `Cc1cn(C2CC(N=[N+]=[N-])C(CO[Si](C)(C)C(C)(C)C)O2)c(=O)[nH]c1=O` (configuration not stated), the TGI in the test on UACC-62 melanoma is 29.8 µM; in the test on OVCAR-8 ovarian, 37.1 µM; in the test on SK-MEL-5 melanoma it was 32.4 µM; in the test with HOP-62 NSCLC, 34.1 µM; in the test with BT-549 breast, 23.7 µM; with MOLT-4 leukemia, above 100 µM. Further, the TGI was found to be 60.9 µM in the test on CCRF-CEM leukemia; 37.9 µM in the test with HCT-15 colon; 31.5 µM with LOX IMVI melanoma; 58 µM with MCF7 breast; 30.7 µM in the test on A498 renal.
In the case of `C=CCn1c(=O)c(C)cn(/C(=C/C(=O)OCC)C(=O)OCC)c1=O`, the TGI was 34.4 µM in the test on UACC-62 melanoma; 45.9 µM with OVCAR-8 ovarian; 36.3 µM in the test with SK-MEL-5 melanoma; above 100 µM in the test on HOP-62 NSCLC; 30.2 µM in the test on BT-549 breast; 21.2 µM in the test with MOLT-4 leukemia. Moreover, the TGI was 5.42 µM in the test on CCRF-CEM leukemia; 13.7 µM with HCT-15 colon; 21.3 µM in the test on LOX IMVI melanoma; 18.9 µM in the test with MCF7 breast; 45.1 µM in the test with A498 renal.
Turning to `Cn1c(=O)n(CC(Br)CBr)c(=O)n(CC(Br)CBr)c1=O` (configuration not stated), the TGI was 72.8 µM with UACC-62 melanoma; above 100 µM with OVCAR-8 ovarian; 32.9 µM with SK-MEL-5 melanoma; above 100 µM in the test on HOP-62 NSCLC; above 100 µM in the test on BT-549 breast; 87.1 µM in the test with MOLT-4 leukemia. For the same compound, the TGI with CCRF-CEM leukemia was 66.9 µM; in the test with HCT-15 colon, above 100 µM; with LOX IMVI melanoma it was 34.9 µM; with MCF7 breast it was above 100 µM; in the test on A498 renal it was above 100 µM.
For the compound `CO[C@H]1O[C@@H]2CO[C@@H](c3ccccc3)O[C@H]2C[C@]12CCC/C=C\CO2`, the TGI is above 75 µM with UACC-62 melanoma; 25.2 µM with OVCAR-8 ovarian; 44.1 µM in the test with SK-MEL-5 melanoma; 44.4 µM with HOP-62 NSCLC; 23.9 µM in the test on BT-549 breast; 32 µM in the test with MOLT-4 leukemia. Also, the TGI in the test with CCRF-CEM leukemia turned out to be 36.5 µM; with HCT-15 colon it was 27.5 µM; in the test on LOX IMVI melanoma it was 22.9 µM; with MCF7 breast, 35.7 µM; in the test with A498 renal, 37.2 µM.
Take `NC(=O)N(O)c1cccc(Br)c1`: the TGI with UACC-62 melanoma, in the test with OVCAR-8 ovarian, in the test on SK-MEL-5 melanoma, in the test on HOP-62 NSCLC, in the test with BT-549 breast and in the test with MOLT-4 leukemia was above 100 µM throughout. Moreover, the TGI with CCRF-CEM leukemia, in the test on HCT-15 colon, in the test on LOX IMVI melanoma, in the test on MCF7 breast and in the test on A498 renal was above 100 µM each time.
Turning to `CC1(C)CC(=O)c2c(nc3ccc4ccccc4c3c2-c2ccc(NC(=O)CCCCC(=O)Nc3ccc(-c4c5c(nc6ccc7ccccc7c46)CC(C)(C)CC5=O)cc3)cc2)C1`, the TGI in the test on UACC-62 melanoma, in the test with OVCAR-8 ovarian, in the test on SK-MEL-5 melanoma, in the test with HOP-62 NSCLC, in the test with BT-549 breast and in the test on MOLT-4 leukemia was above 100 µM throughout. The TGI in the test with CCRF-CEM leukemia, with HCT-15 colon, with LOX IMVI melanoma, in the test on MCF7 breast and in the test with A498 renal was above 100 µM in each case.
`O=C(/C=C/c1ccc(O)c(O)c1)OCCOC(=O)/C=C/c1ccc(O)c(O)c1`: the TGI is 35.1 µM in the test on UACC-62 melanoma; above 100 µM in the test on OVCAR-8 ovarian; 32.7 µM in the test with SK-MEL-5 melanoma; 47.4 µM with HOP-62 NSCLC; above 100 µM with BT-549 breast; 44.9 µM in the test with MOLT-4 leukemia. For the same compound, the TGI in the test on CCRF-CEM leukemia was above 100 µM; in the test with HCT-15 colon it was above 100 µM; with LOX IMVI melanoma, 93.3 µM; in the test on MCF7 breast, 90.9 µM; with A498 renal it was above 100 µM.
`Nc1c(C(=O)c2ccccc2)[nH]c(NCc2ccccc2)c1C(=S)Nc1ccccc1`: the TGI in the test on UACC-62 melanoma, in the test with OVCAR-8 ovarian, with SK-MEL-5 melanoma, in the test on HOP-62 NSCLC, in the test on BT-549 breast and with MOLT-4 leukemia was above 100 µM in each case. Besides, the TGI in the test with CCRF-CEM leukemia, in the test on HCT-15 colon, in the test with LOX IMVI melanoma, in the test with MCF7 breast and in the test on A498 renal was above 100 µM each time.
`O/N=C\c1cc(O)c(O)c(/C=N/O)c1`: the TGI with UACC-62 melanoma, in the test on OVCAR-8 ovarian, in the test on SK-MEL-5 melanoma, in the test on HOP-62 NSCLC, in the test with BT-549 breast and in the test with MOLT-4 leukemia was above 100 µM each time. In addition, the TGI in the test with CCRF-CEM leukemia, with HCT-15 colon, in the test on LOX IMVI melanoma, in the test with MCF7 breast and with A498 renal was above 100 µM throughout.
As for `COC(=O)CCCCC/C(=C\C(=O)C(Cl)(Cl)Cl)OC`, the TGI with UACC-62 melanoma was above 100 µM; in the test on OVCAR-8 ovarian, 73.6 µM; with SK-MEL-5 melanoma, above 100 µM; in the test with HOP-62 NSCLC, above 100 µM; in the test on BT-549 breast, above 100 µM; in the test on MOLT-4 leukemia, 60.1 µM. For the same compound, the TGI in the test on CCRF-CEM leukemia was above 100 µM; in the test with HCT-15 colon it was 68.2 µM; with LOX IMVI melanoma, 44.9 µM; in the test with MCF7 breast, 58.5 µM; with A498 renal it was above 100 µM.
As to `CCC(=O)NCCc1c[nH]c2ccc(OC)cc12`, the TGI in the test with UACC-62 melanoma, with OVCAR-8 ovarian, in the test on SK-MEL-5 melanoma, with HOP-62 NSCLC, in the test with BT-549 breast and in the test with MOLT-4 leukemia was above 100 µM throughout. Moreover, the TGI in the test on CCRF-CEM leukemia, with HCT-15 colon, with LOX IMVI melanoma, in the test with MCF7 breast and in the test on A498 renal was above 100 µM throughout.
